Laboratory results from PMC6832265 (Molecules, 2019).
Entries after “also recorded” stand apart in the source; their conditions may differ. Read-outs that look alike come from different tables or passages of the source.

Columns and labels:
Tdp1 [1] = biological target: T1, Tdp1 (Homo sapiens, UniProt Q9NUW8); assay: Real-time detection of Tdp1 activity (5'-FAM/3'-BHQ1 oligonucleotide biosensor); assay type: biochemical; conditions: 1.5 nM Tdp1, 50 nM oligonucleotide substrate, 26 °C
T1 construct: made in house; host or cells: Escherichia coli
T1 sequence (Q9NUW8 whole entry): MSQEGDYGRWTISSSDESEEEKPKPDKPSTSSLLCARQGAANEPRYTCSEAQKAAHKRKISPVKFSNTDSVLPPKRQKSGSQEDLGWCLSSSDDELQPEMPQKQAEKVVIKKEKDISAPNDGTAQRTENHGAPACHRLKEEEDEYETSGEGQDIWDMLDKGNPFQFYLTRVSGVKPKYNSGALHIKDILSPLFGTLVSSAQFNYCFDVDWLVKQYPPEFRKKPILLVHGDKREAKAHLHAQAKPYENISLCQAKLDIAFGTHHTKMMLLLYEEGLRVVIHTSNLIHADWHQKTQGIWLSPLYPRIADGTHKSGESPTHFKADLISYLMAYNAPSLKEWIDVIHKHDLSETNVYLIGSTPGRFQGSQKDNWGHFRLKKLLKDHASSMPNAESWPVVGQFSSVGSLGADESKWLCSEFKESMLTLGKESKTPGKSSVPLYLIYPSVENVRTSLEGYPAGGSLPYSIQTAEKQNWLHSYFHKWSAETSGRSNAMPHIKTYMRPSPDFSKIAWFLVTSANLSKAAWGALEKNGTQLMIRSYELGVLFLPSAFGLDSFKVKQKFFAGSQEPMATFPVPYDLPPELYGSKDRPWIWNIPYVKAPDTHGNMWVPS
How it was run: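 Recombinant human Tdp1 (E. coli-expressed, 1.5 nM) with 50 nM 16-mer ssDNA 5'-FAM/3'-BHQ1 biosensor in 50 mM Tris-HCl, 50 mM NaCl, 7 mM β-mercaptoethanol, 26 °C; fluorescence (Ex485/Em520) read each minute. Inhibition from linear-phase slope (0–7 min) vs 1.5% DMSO control; IC50 from six-point curves, ≥2 independent experiments.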

[2] = MTT test, intrinsic cytotoxicity; assay type: cell-based; conditions: human, HeLa cells (cervical carcinoma), compound alone
Excerpt: First, we studied the intrinsic cytotoxicity of the compounds against HeLa cells (cervical carcinoma). For experiments on cells, we selected compounds which combined high inhibitory activity with good chemical accessibility. The MTT test data are shown in Figure 4 for compounds from both the heteroarylidene-hydrazinotiazole and arylidene-hydrazinotiazole subclasses. […] Heteroarylidene-hydrazinothiazole derivatives (+)- and (−)-16f, containing a bromothiophene residue, also have low toxicity (CC50 about 80 µM), while the 16d pair, containing a nitro group that is a known toxicophore, suppressed cell growth at a concentration of 20 µM.
Analysis of the intrinsic toxicity of the compounds was examined against human cell line HeLa (cervical cancer) using a standard MTT test by colorimetric measurement of the amount of formazan converted from 3-(4,5-dimethylthiazol-2-yl)-2,5-diphenyl-2H-tetrazolium bromide in cells exposed to the compounds. […] After formation of a 30–50% monolayer, tested compounds were added to the medium (the volume of added reagents was 1/100 of the total volume of the culture medium, the amount of DMSO was 1% of the final volume), and the cell culture was monitored for three days. […]

[3] = biological target: T2, recombinant Tdp1 (residues 149–608) (Homo sapiens, UniProt Q9NUW8); assay: Intrinsic tryptophan fluorescence quenching binding assay; conditions: 10 µM Tdp1, 20 mM Tris, 250 mM NaCl, pH 8; triplicate
T2 construct: recombinant Tdp1 (residues 149–608) was obtained from GenScript; host or cells: E. coli BL21(DE3)
T2 sequence (Q9NUW8 149-608): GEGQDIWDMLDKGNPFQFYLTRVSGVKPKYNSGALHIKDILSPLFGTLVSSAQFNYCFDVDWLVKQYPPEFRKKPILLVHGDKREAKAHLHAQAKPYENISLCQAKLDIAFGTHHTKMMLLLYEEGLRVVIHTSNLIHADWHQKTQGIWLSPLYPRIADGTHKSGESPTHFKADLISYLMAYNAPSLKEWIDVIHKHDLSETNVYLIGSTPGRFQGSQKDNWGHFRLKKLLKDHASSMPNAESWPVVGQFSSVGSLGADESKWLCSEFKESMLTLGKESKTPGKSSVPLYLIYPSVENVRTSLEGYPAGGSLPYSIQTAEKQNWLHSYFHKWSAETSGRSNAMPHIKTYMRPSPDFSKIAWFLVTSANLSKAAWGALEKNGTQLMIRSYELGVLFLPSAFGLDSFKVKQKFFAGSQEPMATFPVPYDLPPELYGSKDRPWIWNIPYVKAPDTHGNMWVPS
Description: The binding of the synthesized compounds to recombinant Tdp1 was also tested (Table 1 and Table 2) by using an intrinsic tryptophan fluorescence quenching assay. […] As our compounds are aromatic in nature, there is a possibility that they may bind to both the active site as well as non-specifically to the DNA/peptide binding pockets. Nonetheless, our results confirmed that the compounds were indeed binders of Tdp1, thus complementing our inhibition data.
pET-28a(+) plasmid encoding recombinant Tdp1 (residues 149–608) was obtained from GenScript. E. coli BL21(DE3) was used for recombinant protein production. Protein production was induced with 1 mM IPTG at 28 °C with overnight incubation. Tdp1 was purified using affinity and size exclusion chromatography. Fluorescence was measured using a PerkinElmer EnSpire Multimode Reader. Tdp1 concentration was 10 μM with varying compound concentrations. The buffer was 20 mM Tris and 250 mM NaCl (pH 8). The excitation wavelength was 280 nm and intrinsic fluorescence was measured at 350 nm. Control experiments with Tdp1 or the compound on its own were also conducted. Background fluorescence arising from the compounds was subtracted from the final spectrum. The total volume per well was 30 μL. The dissociation constant (KD) was calculated using Equation (1), which takes non-specific binding into account. y = Bmaxx/(KD + x) + Nsx(1) where y denotes the changes in fluorescence intensity; x denotes the concentration of the compounds; Bmax denotes the maximum changes in fluorescence intensity; and Ns is a scaling factor for non-specific binding. Experiments were conducted in triplicate.

Tdp1 [4] = biological target: T1, Tdp1; conditions: cited from earlier work
HeLa cells = assay: MTT test, combination of Tdp1 inhibitors with topotecan; assay type: cell-based, human
Description: In order to derive the optimal concentration for the inhibitors to provide the maximum sensitizing effect, but remaining non-toxic, the concentrations with topotecan at 2 µM, were varied.
Since there is no information on the rate and efficiency of the penetration of compounds into the cells, we studied the effect of the order of administration of (+)-17b and topotecan on their synergistic effect.
Analysis of the intrinsic toxicity of the compounds was examined against human cell line HeLa (cervical cancer) using a standard MTT test [51] by colorimetric measurement of the amount of formazan converted from 3-(4,5-dimethylthiazol-2-yl)-2,5-diphenyl-2H-tetrazolium bromide in cells exposed to the compounds. The cells were grown in Iscove’s Modified Dulbecco’s Medium (IMDM), with 40 μg/mL gentamicin, 50 IU/mL penicillin, 50 μg/mL streptomycin (MP Biomedicals), and in the presence of 10% fetal bovine serum (Biolot) in a 5% CO2 atmosphere. After formation of a 30–50% monolayer, tested compounds were added to the medium (the volume of added reagents was 1/100 of the total volume of the culture medium, the amount of DMSO was 1% of the final volume), and the cell culture was monitored for three days. Control cells were grown in the presence of 1% DMSO. The measurements were carried out in three parallel experiments.

mice = conditions: ref Registry of Toxic Effects of Chemical Substances, cited from earlier work
Tdp2 = system: Tdp2; parameters: method as in PMID 28418653; conditions: cited from earlier work
Top1 = system: Top1; parameters: method as in PMID 28418653; conditions: cited from earlier work
Lewis lung carcinoma = system: Lewis lung carcinoma; parameters: method as in PMID 30903487; conditions: Lewis lung carcinoma models; cited from earlier work

Compound	IC50 (Tdp1 [1]) [µM]	Kd [3] [µM]	also measured
CC(=O)C1=C(O)C=C2Oc3c(-c4csc(N/N=C/c5ccc(Br)s5)n4)c(O)c(C)c(O)c3[C@@]2(C)C1=O [(+)-16f, (2R)-4-Acetyl-5,11,13-trihydroxy-2,12-dimethyl-10-{2-[(E)-2-[(5-bromothiophen-2-yl)methylidene]hydrazin-1-yl]-1,3-thiazol-4-yl}-8-oxatricyclo[7.4.0.0^2,7]trideca-1(9),4,6,10,12-pentaen-3-one]	0.088 ± 0.003	95 ± 11	CC50 at 3 days [2]: ~80 µM
CCCCN(CCCC)CC(=O)Nc1cc(C(F)(F)F)cc2c1SSSSS2 [compound 2]			IC50 (Tdp1 [4]; read-out: IC50): 0.2 µM
CC(=O)C1=C(O)C=C2Oc3c(-c4csc(N/N=C/c5ccc(Br)s5)n4)c(O)c(C)c(O)c3[C@]2(C)C1=O [(−)-16f, (2S)-4-Acetyl-5,11,13-trihydroxy-2,12-dimethyl-10-{2-[(E)-2-[(5-bromothiophen-2-yl)methylidene]hydrazin-1-yl]-1,3-thiazol-4-yl}-8-oxatricyclo[7.4.0.0^2,7]trideca-1(9),4,6,10,12-pentaen-3-one]	0.043 ± 0.001	148 ± 9	CC50 at 3 days [2]: ~80 µM
COc1ccc(/C=N/Nc2nc(-c3c(O)c(C)c(O)c4c3OC3=CC(O)=C(C(C)=O)C(=O)[C@@]34C)cs2)cc1COc1cccc(F)c1 [(+)-17b, (2R)-4-Acetyl-10-{2-[(E)-2-({3-[(3-fluorophenoxy)methyl]-4-methoxyphenyl}methylidene)hydrazin-1-yl]-1,3-thiazol-4-yl}-5,11,13-trihydroxy-2,12-dimethyl-8-oxatricyclo[7.4.0.0^2,7]trideca-1(9),4,6,10,12-pentaen-3-one]	0.026 ± 0.004	131 ± 15	effect of the order of administration on the synergistic effect with topotecan (HeLa cells; 30 minutes between additions): the simultaneous administration of drugs reduced the synergistic effect; also recorded: led to worse results when compared with simultaneous administration
2,6-diacetyl-7,9-dihydroxy-8,9b-dimethyl-1,3(2H,9bH)-dibenzo-furandione [Usnic acid]			LD50 (mice; mice): 838 mg/kg; toxicity class (mice): class III toxicity (moderately toxic)
COc1cnc2c(c1)C(=O)c1c-2n(CCCNC2=NCCS2)c(=O)c2cc([N+](=O)[O-])ccc12 [compound 4]			IC50 (Tdp2): 12 to 37 µM; IC50 (Tdp1 [4]; read-out: IC50 (Tdp1)): 1 to 12 µM; IC50 (Top1): < 1 µM
CC(=O)c1c(O)c(C)c(O)c2c1OC1=CC(=O)/C(=C(/C)NCCCc3cc(C(C)(C)C)c(O)c(C(C)(C)C)c3)C(=O)[C@@]12C [9b]			metastasis growth (Lewis lung carcinoma): reduces metastasis growth
CC(=O)C1=C(O)C=C2Oc3c(-c4csc(N/N=C/c5cccn5C)n4)c(O)c(C)c(O)c3[C@@]2(C)C1=O [(+)-16n, (2R)-4-Acetyl-5,11,13-trihydroxy-2,12-dimethyl-10-{2-[(E)-2-[(1-methyl-pyrrol-2-yl)methylidene]hydrazin-1-yl]-1,3-thiazol-4-yl}-8-oxatricyclo[7.4.0.0^2,7]trideca-1(9),4,6,10,12-pentaen-3-one]	0.151 ± 0.014	719 ± 17	
CC1(C)[C@H]2CC=C(COc3ccc4c5c(c(=O)oc4c3)CCC5)[C@@H]1C2 [compound 7]			IC50 (Tdp1 [4]; read-out: IC50): 0.67 µM
CC[C@@]1(O)C(=O)OCc2c1cc1n(c2=O)Cc2cc3c(CN(C)C)c(O)ccc3nc2-1 [topotecan, reference compound]			CC50 (HeLa cells; Homo sapiens, read-out: CC50 of topotecan alone): 6 µM
(2S)-4-Acetyl-10-{2-[(E)-2-({3-[(3,4-difluorophenoxy)methyl]-4-methoxyphenyl}methylidene)hydrazin-1-yl]-1,3-thiazol-4-yl}-5,11,13-trihydroxy-2,12-dimethyl-8-oxatricyclo[7.4.0.0^2,7]trideca-1(9),4,6,10,12-pentaen-3-one [(−)-17e]	0.03 ± 0.011	130 ± 8	
CC(=O)C1=C(O)C=C2Oc3c(-c4csc(N/N=C/c5cc(Br)cs5)n4)c(O)c(C)c(O)c3[C@]2(C)C1=O [(−)-16h, (2S)-4-Acetyl-5,11,13-trihydroxy-2,12-dimethyl-10-{2-[(E)-2-[(4-bromothiophen-2-yl)methylidene]hydrazin-1-yl]-1,3-thiazol-4-yl}-8-oxatricyclo[7.4.0.0^2,7]trideca-1(9),4,6,10,12-pentaen-3-one]	0.056 ± 0.004	355 ± 50	
COc1ccc(/C=N/Nc2nc(-c3c(O)c(C)c(O)c4c3OC3=CC(O)=C(C(C)=O)C(=O)[C@@]34C)cs2)cc1COc1ccc(F)c(Cl)c1 [(+)-17d, (2R)-4-Acetyl-10-{2-[(E)-2-({3-[(3-chloro-4-fluorophenoxy)methyl]-4-methoxyphenyl}methylidene)hydrazin-1-yl]-1,3-thiazol-4-yl}-5,11,13-trihydroxy-2,12-dimethyl-8-oxatricyclo[7.4.0.0^2,7]trideca-1(9),4,6,10,12-pentaen-3-one]	0.077 ± 0.003	130 ± 29	
CC(=O)C1=C(O)C=C2Oc3c(-c4csc(N/N=C/c5ccncc5)n4)c(O)c(C)c(O)c3[C@@]2(C)C1=O [(+)-16a, 4-[(1E)-(2-{4-[(1R)-12-Acetyl-3,5,11-trihydroxy-1,4-dimethyl-13-oxo-8-oxatricyclo[7.4.0.0^2,7]trideca-2(7),3,5,9,11-pentaen-6-yl]-1,3-thiazol-2-yl}hydrazin-1-ylidene)methyl]pyridin-1-ium bromide]	0.16 ± 0.016	139 ± 32	
COc1ccc(/C=N/Nc2nc(-c3c(O)c(C)c(O)c4c3OC3=CC(O)=C(C(C)=O)C(=O)[C@@]34C)cs2)cc1Cn1nc(C)c([N+](=O)[O-])c1C [(+)-17k, (2R)-4-Acetyl-10-{2-[(E)-2-({3-[(3,5-dimethyl-4-nitro-1H-pyrazol-1-yl)methyl]-4-methoxyphenyl}methylidene)hydrazin-1-yl]-1,3-thiazol-4-yl}-5,11,13-trihydroxy-2,12-dimethyl-8-oxatricyclo[7.4.0.0^2,7]trideca-1(9),4,6,10,12-pentaen-3-one]	0.054 ± 0.008	156 ± 8	
CC(=O)C1=C(O)C=C2Oc3c(-c4csc(N/N=C/c5cnc[nH]5)n4)c(O)c(C)c(O)c3[C@]2(C)C1=O [(−)-16o, 5-[(1E)-(2-{4-[(1S)-12-Acetyl-3,5,11-trihydroxy-1,4-dimethyl-13-oxo-8-oxatricyclo[7.4.0.0^2,7]trideca-2(7),3,5,9,11-pentaen-6-yl]-1,3-thiazol-2-yl}hydrazin-1-ylidene)methyl]-1H-imidazol-1-ium bromide]	0.57 ± 0.109	51 ± 4	
COc1ccc(/C=N/Nc2nc(-c3c(O)c(C)c(O)c4c3OC3=CC(O)=C(C(C)=O)C(=O)[C@@]34C)cs2)cc1COc1ccc(Cl)c(C)c1 [(+)-17h, (2R)-4-Acetyl-10-{2-[(E)-2-({3-[(4-chloro-3-methylphenoxy)methyl]-4-methoxyphenyl}methylidene)hydrazin-1-yl]-1,3-thiazol-4-yl}-5,11,13-trihydroxy-2,12-dimethyl-8-oxatricyclo[7.4.0.0^2,7]trideca-1(9),4,6,10,12-pentaen-3-one]	0.074 ± 0.001	188 ± 22	
(2R)-4-Acetyl-10-{2-[(E)-2-({3-[(3,4-difluorophenoxy)methyl]-4-methoxyphenyl}methylidene)hydrazin-1-yl]-1,3-thiazol-4-yl}-5,11,13-trihydroxy-2,12-dimethyl-8-oxatricyclo[7.4.0.0^2,7]trideca-1(9),4,6,10,12-pentaen-3-one [(+)-17e]	0.064 ± 0.006	213 ± 4	
